From patent US9849131B2 (AUTIFONY THERAPEUTICS LIMITED, priority 2009, dated 2017)

Columns and labels:
[1] = system: high voltage-activated potassium currents in MNTB neurons (presumed to be mediated by Kv3.1 channels); assay: Potassium currents recorded from MNTB neurons, in vitro (Example 91); type: cell-based, mouse; details: 10 microM in the continuing presence of TEA (1 mM); voltage steps to +40 mV
Experimental: Male CBA/Ca mice (aged 12-16 days) were used in these experiments (in accordance with the UK Animals Scientific Procedures Act, 1986). Brain slices containing the medial nucleus of the trapezoid body (MNTB) were prepared as described previously (Brew and Forsythe, 2005).
Chemicals and reagents were purchased from Sigma, (Poole, UK) unless otherwise noted. EXAMPLE 19 was dissolved in DMSO and diluted in ACSF to the required concentration.
Recordings from identified MNTB neurons were conducted as previously described (Brew and Forsythe, 2005). Slices was placed in a superfusion chamber on an inverted microscope stage and continuously perfused with gassed (95% O2-5% CO2) ACSF at a rate of 1 ml min^−1 at room temperature. Whole-cell recordings were made from visually identified MNTB neurons using an […] amplifier (Molecular Devices, Union City, Calif., USA). Patch solution comprised (in mM) potassium gluconate (97.5), KCl (32.5), Hepes (40), EGTA (5), MgCl2 (1), Na2 phosphocreatin (5), pH 7.2 with KOH. Pipettes had resistances of 3-5 MΩ and series resistances were 6-10 MΩ (compensated by 70%, 10 μs lag). Access resistance was frequently monitored and the recording discarded if increases were more than 2 MΩ. […]

[2] = system: parvalbumin-positive interneurons in the somatosensory cortex; assay: Firing of parvalbumin-positive interneurons in somatosensory cortex slices, in vitro (Example 90); type: cell-based, mouse; details: vs TEA alone, p<0.05
[3] = molecular target: T1, hKv3.2 (Homo sapiens, UniProt Q96PR1); assay: IonWorks Quattro assay, secondary analysis of activation time constant (Tauact); type: cell-based; details: classification from effect on Tauact
T1 construct: expressed in transfected cells; host or cells: CHO-K1
T1 sequence (Q96PR1 1-638): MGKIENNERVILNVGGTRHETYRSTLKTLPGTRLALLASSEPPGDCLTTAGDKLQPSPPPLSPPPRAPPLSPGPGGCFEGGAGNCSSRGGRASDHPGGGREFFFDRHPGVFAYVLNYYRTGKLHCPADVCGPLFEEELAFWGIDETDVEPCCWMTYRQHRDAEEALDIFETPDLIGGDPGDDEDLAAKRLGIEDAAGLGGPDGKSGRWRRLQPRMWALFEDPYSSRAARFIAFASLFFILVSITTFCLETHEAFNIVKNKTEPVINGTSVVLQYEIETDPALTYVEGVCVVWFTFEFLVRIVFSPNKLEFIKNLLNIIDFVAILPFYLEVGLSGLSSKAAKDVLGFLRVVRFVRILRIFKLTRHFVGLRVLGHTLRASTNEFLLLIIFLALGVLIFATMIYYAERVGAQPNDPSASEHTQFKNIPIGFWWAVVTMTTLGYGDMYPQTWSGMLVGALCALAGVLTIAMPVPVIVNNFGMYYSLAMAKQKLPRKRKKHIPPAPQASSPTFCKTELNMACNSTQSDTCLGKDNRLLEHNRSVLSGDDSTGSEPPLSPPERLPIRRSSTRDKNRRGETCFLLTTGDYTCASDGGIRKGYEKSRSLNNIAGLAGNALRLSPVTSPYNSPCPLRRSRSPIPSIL
Experimental: A stable cell line expressing human Kv3.2 channels (hKv3.2) was created by transfecting Chinese Hamster Ovary (CHO)-K1 cells with a pCIH5-hKv3.2 vector. Cells were cultured in DMEM/F12 medium supplemented by 10% Foetal Bovine Serum, 1× non-essential amino acids (Invitrogen) and 500 ug/ml of Hygromycin-B (Invitrogen). Cells were grown and maintained at 37° C. in a humidified environment containing 5% CO2 in air.
The day of the experiment, cells were removed from the incubator and the culture medium removed. Cells were washed with 5 ml of Dulbecco's PBS (DPBS) calcium and magnesium free and detached by the addition of 3 ml Versene (Invitrogen, Italy) followed by a brief incubation at 37° C. for 5 minutes. The flask was tapped to dislodge cells and 10 ml of DPBS containing calcium and magnesium was added to prepare a cell suspension. The cell suspension was then placed into a 15 ml centrifuge tube and centrifuged for 2 min at 1200 rpm. After centrifugation, the supernatant was removed and the cell pellet re-suspended in 4 ml of DPBS containing calcium and magnesium using a 5 ml pipette to break […] up the pellet. Cell suspension volume was then corrected to give a cell concentration for the assay of approximately 3 million cells per ml.
Experiments were conducted at room temperature using IonWorks Quattro™ planar array electrophysiology technology (Molecular Devices Corp.) with PatchPlate™ PPC. Stimulation protocols and data acquisition were carried out using a microcomputer (Dell Pentium 4). Planar electrode hole resistances (Rp) were determined by applying a 10 mV voltage step across each well. These measurements were performed before cell addition. […] Following this, amphotericin-B solution was added to the intracellular face of the electrode to achieve intracellular access. Cells were held at −70 mV. Leak subtraction was conducted in all experiments by applying 50 ms hyperpolarizing (10 mV) prepulses to evoke leak currents followed by a 20 ms period at the holding potential before test pulses. From the holding potential of −70 mV, a first test pulse to −15 mV was applied for 100 ms and following a further 100 ms at −70 mV, a second pulse to 40 mV was applied for 50 ms. Cells were then maintained for a further 100 ms at −100 mV and then a voltage ramp from −100 mV to 40 mV was applied over 200 ms. In all experiments, the test pulses protocol was performed in the absence (pre-read) and presence (post-read) of the test compound. Pre- and post-reads were separated by the compound addition followed by a 3 minute incubation.
The magnitude of the effect of a compound can be determined from the time constant (Tauact) obtained from a non-linear fit, using the equation given below, of the rise in Kv3.1 or Kv3.2 currents following the start of the depolarising voltage pulse. Y=(Y0−Ymax)*exp(−K*X)+Ymax
Where: • Y0 is the current value at the start of the depolarising voltage pulse; • Ymax is the plateau current;
K is the rate constant, and Tauact is the activation time constant, which is the reciprocal of K.

[4] = system: Male CD-1 mice; assay: Psychostimulant (amphetamine)-induced hyperactivity in mice (Example 93); details: mouse; for Total Distance Travelled (cm): 60 minutes, mean ± sem

Q: For CC[C@H]1NC(=O)N(c2ccc(Oc3ccc(C)c(OC)c3)nc2)C1=O [Example 19, (5R)-5-ethyl-3-(6-{[4-methyl-3-(methyloxy)phenyl]oxy}-3-pyridinyl)-2,4-imidazolidinedione], which “reversal of TEA-induced reduction of high voltage-activated potassium current amplitude” value [1] is on record?
A: reversed

Q: What about the “reversal of TEA-induced lowering of maximal firing frequency” value ([2]; TEA (0.5 mM) plus compound at 10 μM) of the same molecule?
A: significantly reversed

Q: What about the “reversal of TEA-induced lowering of maximal firing frequency” value ([2]; TEA (0.5 mM) plus compound) of the same molecule?
A: significantly reversed

Q: And the “acts as positive or negative modulator of Kv3.1 and/or Kv3.2” value [3]?
A: positive modulators

Q: And the “effect on the increase in total distance travelled produced by amphetamine” value ([4]; 30 mg/kg p.o.)?
A: significantly reduced

Q: What about the “effect on the increase in locomotor activity induced by amphetamine” value ([4]; 60 mg/kg p.o., similar to clozapine 3 mg/kg i.p.) of the same molecule?
A: further reduced

Q: What about the “Total Distance Travelled (cm)” value ([4]; AMPH 2 mg/kg i.p. + compound 30 mg/kg p.o. 30 minutes before) of the same molecule?
A: 5790 ± 1436 cm

Q: And the “Total Distance Travelled (cm)” value ([4]; AMPH 2 mg/kg i.p. + compound 60 mg/kg p.o. 30 minutes before)?
A: 1494 ± 378 cm
